Results reported in ChEMBL document CHEMBL1126543, “1,24S-dihydroxy-26,27-cyclo-22-yne-vitamin D3: the side chain triple bond analogue of MC 903 (calcipotriol)” (Bioorg Med Chem Lett, 1993).
Calls of active or inactive are those of the source. No cut-off for these calls is given here.

Columns and labels:
Rattus norvegicus [1] = test: Tested for the effect on calcium homeostasis in rats dosed up to 100 ug/kg daily for 7 days; Compound was found to show no effect; type: functional, organism-based
Rattus norvegicus [2] = test: Tested for the hypercalciuria effect at 0.5 ug/kg by 1,25-(OH)2D3 for 7 days up to 100 ug/kg; compound produced marked hypercalciuria at 0.5 ug/kg; type: functional, organism-based

With `C=C1/C(=C\C=C2/CCC[C@]3(C)[C@@H]([C@H](C)C#C[C@@H](O)C4CC4)CC[C@@H]23)C[C@@H](O)C[C@@H]1O` the Activity (Rattus norvegicus [1]) was “inactive” and the Activity (Rattus norvegicus [2]) was “Marked hypercalciuria at 0.5 ug/kg”.
